The supplement of paper PMC13207355

Key:
Details in all cases: exposure time: 72 h
E28 [1] = patient-derived glioblastoma stem cells of classical subtype; experiment: phenotypic distance (Euclidean, principal components) from DMSO controls (arbitrary units); higher = stronger morphological change
E34 [2] = patient-derived glioblastoma stem cells of proneural subtype; experiment: as above
E31 [3] = patient-derived glioblastoma stem cells of proneural subtype; experiment: as above
E13 [4] = patient-derived glioblastoma stem cells of classical subtype; experiment: as above
E57 [5] = patient-derived glioblastoma stem cells of mesenchymal subtype; experiment: as above
E21 [6] = patient-derived glioblastoma stem cells of mesenchymal subtype; experiment: as above
FT3469 [7] = normal neural stem cell line; experiment: as above
E28 [8] = experiment: surviving fraction (nuclei count normalised to DMSO); higher = more cells surviving (less toxic)
E34 [9] = experiment: as above
E31 [10] = experiment: as above
E13 [11] = experiment: as above
E57 [12] = experiment: as above
E21 [13] = experiment: as above
FT3469 [14] = experiment: as above
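Throughout, for phenotypic distance (Euclidean, principal components) from DMSO controls: cell Painting imaging in 384-well plates, CellProfiler features reduced to at least 20 principal components, Euclidean distance versus same-plate DMSO vehicle wells (0.1% v/v), median over six images per well.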
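Throughout, for surviving fraction (nuclei count normalised to DMSO): nuclei counted by high-content imaging of Hoechst-stained cells in laminin-coated 384-well plates, relative to 0.1% DMSO vehicle wells, with staurosporine as cell-death control.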

COC(=O)C[C@](O)(CCCC(C)(C)O)C(=O)O[C@@H]1C(OC)=C[C@]23CCCN2CCc2cc4c(cc2[C@H]13)OCO4 [Homoharringtonine]
Details | phenotypic distance | surviving fraction
E13 [4], 4.1 nM | 1.66 | –
E13 [4], 12.3 nM | 2.13 | –
E13 [4], 37 nM | 4.35 | –
E13 [4], 111.1 nM | 3.97 | –
E13 [4], 333.3 nM | 5.67 | –
E13 [4], 1000 nM | 7.51 | –
E13 [4], 3000 nM | 8.63 | –
E13 [11], 4.1 nM | – | 0.73
E13 [11], 12.3 nM | – | 0.702
E13 [11], 37 nM | – | 0.367
E13 [11], 111.1 nM | – | 0.401
E13 [11], 333.3 nM | – | 0.316
E13 [11], 1000 nM | – | 0.239
E13 [11], 3000 nM | – | 0.0816
E21 [6], 4.1 nM | 1.39 | –
E21 [6], 12.3 nM | 1.73 | –
E21 [6], 37 nM | 4.36 | –
E21 [6], 111.1 nM | 3.63 | –
E21 [6], 333.3 nM | 4.11 | –
E21 [6], 1000 nM | 5.37 | –
E21 [6], 3000 nM | 8.36 | –
E21 [13], 4.1 nM | – | 0.726
E21 [13], 12.3 nM | – | 0.721
E21 [13], 37 nM | – | 0.289
E21 [13], 111.1 nM | – | 0.402
E21 [13], 333.3 nM | – | 0.186
E21 [13], 1000 nM | – | 0.179
E21 [13], 3000 nM | – | 0.0999
E28 [1], 4.1 nM | 1.42 | –
E28 [1], 12.3 nM | 1.38 | –
E28 [1], 37 nM | 2.63 | –
E28 [1], 111.1 nM | 1.37 | –
E28 [1], 333.3 nM | 2.87 | –
E28 [1], 1000 nM | 3.53 | –
E28 [1], 3000 nM | 4.17 | –
E28 [8], 4.1 nM | – | 0.694
E28 [8], 12.3 nM | – | 0.573
E28 [8], 37 nM | – | 0.334
E28 [8], 111.1 nM | – | 0.41
E28 [8], 333.3 nM | – | 0.336
E28 [8], 1000 nM | – | 0.343
E28 [8], 3000 nM | – | 0.282
E31 [3], 4.1 nM | 1.9 | –
E31 [3], 12.3 nM | 2.41 | –
E31 [3], 37 nM | 3.5 | –
E31 [3], 111.1 nM | 4.14 | –
E31 [3], 333.3 nM | 4.68 | –
E31 [3], 1000 nM | 5.99 | –
E31 [3], 3000 nM | 5.88 | –
E31 [10], 4.1 nM | – | 0.502
E31 [10], 12.3 nM | – | 0.372
E31 [10], 37 nM | – | 0.226
E31 [10], 111.1 nM | – | 0.218
E31 [10], 333.3 nM | – | 0.209
E31 [10], 1000 nM | – | 0.164
E31 [10], 3000 nM | – | 0.171
E34 [2], 4.1 nM | 1.44 | –
E34 [2], 12.3 nM | 1.62 | –
E34 [2], 37 nM | 2.68 | –
E34 [2], 111.1 nM | 3.86 | –
E34 [2], 333.3 nM | 3.89 | –
E34 [2], 1000 nM | 4.65 | –
E34 [2], 3000 nM | 6.65 | –
E34 [9], 4.1 nM | – | 0.844
E34 [9], 12.3 nM | – | 0.873
E34 [9], 37 nM | – | 0.505
E34 [9], 111.1 nM | – | 0.553
E34 [9], 333.3 nM | – | 0.434
E34 [9], 1000 nM | – | 0.412
E34 [9], 3000 nM | – | 0.337
E57 [5], 4.1 nM | 1.28 | –
E57 [5], 12.3 nM | 2.53 | –
E57 [5], 37 nM | 4.58 | –
E57 [5], 111.1 nM | 4.46 | –
E57 [5], 333.3 nM | 6.69 | –
E57 [5], 1000 nM | 8.52 | –
E57 [5], 3000 nM | 8.81 | –
E57 [12], 4.1 nM | – | 0.931
E57 [12], 12.3 nM | – | 0.677
E57 [12], 37 nM | – | 0.207
E57 [12], 111.1 nM | – | 0.215
E57 [12], 333.3 nM | – | 0.102
E57 [12], 1000 nM | – | 0.0784
E57 [12], 3000 nM | – | 0.0251
FT3469 [7], 4.1 nM | 1.22 | –
FT3469 [7], 12.3 nM | 1.49 | –
FT3469 [7], 37 nM | 1.36 | –
FT3469 [7], 111.1 nM | 2 | –
FT3469 [7], 333.3 nM | 1.75 | –
FT3469 [7], 1000 nM | 2.95 | –
FT3469 [7], 3000 nM | 3.51 | –
FT3469 [14], 4.1 nM | – | 0.701
FT3469 [14], 12.3 nM | – | 0.669
FT3469 [14], 37 nM | – | 0.604
FT3469 [14], 111.1 nM | – | 0.589
FT3469 [14], 333.3 nM | – | 0.536
FT3469 [14], 1000 nM | – | 0.53
FT3469 [14], 3000 nM | – | 0.436

CC[C@@]1(O)C(=O)OCc2c1cc1n(c2=O)Cc2cc3cc(O)ccc3nc2-1 [Hydroxy Camptothecine]
Details | phenotypic distance | surviving fraction
E13 [4], 4.1 nM | 5.76 | –
E13 [4], 12.3 nM | 6.4 | –
E13 [4], 37 nM | 5.69 | –
E13 [4], 111.1 nM | 6.9 | –
E13 [4], 333.3 nM | 6.25 | –
E13 [4], 1000 nM | 6.56 | –
E13 [4], 3000 nM | 6.55 | –
E13 [11], 4.1 nM | – | 0.295
E13 [11], 12.3 nM | – | 0.298
E13 [11], 37 nM | – | 0.269
E13 [11], 111.1 nM | – | 0.241
E13 [11], 333.3 nM | – | 0.178
E13 [11], 1000 nM | – | 0.197
E13 [11], 3000 nM | – | 0.141
E21 [6], 4.1 nM | 4.52 | –
E21 [6], 12.3 nM | 4.56 | –
E21 [6], 37 nM | 5.14 | –
E21 [6], 111.1 nM | 4.89 | –
E21 [6], 333.3 nM | 4.81 | –
E21 [6], 1000 nM | 5.63 | –
E21 [6], 3000 nM | 5.74 | –
E21 [13], 4.1 nM | – | 0.133
E21 [13], 12.3 nM | – | 0.115
E21 [13], 37 nM | – | 0.12
E21 [13], 111.1 nM | – | 0.161
E21 [13], 333.3 nM | – | 0.135
E21 [13], 1000 nM | – | 0.106
E21 [13], 3000 nM | – | 0.119
E28 [1], 4.1 nM | 3 | –
E28 [1], 12.3 nM | 2.79 | –
E28 [1], 37 nM | 3.94 | –
E28 [1], 111.1 nM | 2.28 | –
E28 [1], 333.3 nM | 3.33 | –
E28 [1], 1000 nM | 3.32 | –
E28 [1], 3000 nM | 3.06 | –
E28 [8], 4.1 nM | – | 0.341
E28 [8], 12.3 nM | – | 0.331
E28 [8], 37 nM | – | 0.313
E28 [8], 111.1 nM | – | 0.331
E28 [8], 333.3 nM | – | 0.268
E28 [8], 1000 nM | – | 0.219
E28 [8], 3000 nM | – | 0.151
E31 [3], 4.1 nM | 3.54 | –
E31 [3], 12.3 nM | 2.94 | –
E31 [3], 37 nM | 3.69 | –
E31 [3], 111.1 nM | 2.96 | –
E31 [3], 333.3 nM | 3.02 | –
E31 [3], 1000 nM | 4.3 | –
E31 [3], 3000 nM | 4.23 | –
E31 [10], 4.1 nM | – | 0.159
E31 [10], 12.3 nM | – | 0.166
E31 [10], 37 nM | – | 0.174
E31 [10], 111.1 nM | – | 0.231
E31 [10], 333.3 nM | – | 0.223
E31 [10], 1000 nM | – | 0.203
E31 [10], 3000 nM | – | 0.201
E34 [2], 4.1 nM | 3.37 | –
E34 [2], 12.3 nM | 3.46 | –
E34 [2], 37 nM | 1.84 | –
E34 [2], 111.1 nM | 2.93 | –
E34 [2], 333.3 nM | 2.95 | –
E34 [2], 1000 nM | 3.66 | –
E34 [2], 3000 nM | 3.13 | –
E34 [9], 4.1 nM | – | 0.494
E34 [9], 12.3 nM | – | 0.492
E34 [9], 37 nM | – | 0.608
E34 [9], 111.1 nM | – | 0.446
E34 [9], 333.3 nM | – | 0.509
E34 [9], 1000 nM | – | 0.496
E34 [9], 3000 nM | – | 0.569
E57 [5], 4.1 nM | 6.51 | –
E57 [5], 12.3 nM | 6.72 | –
E57 [5], 37 nM | 6.63 | –
E57 [5], 111.1 nM | 5.99 | –
E57 [5], 333.3 nM | 6.28 | –
E57 [5], 1000 nM | 6.33 | –
E57 [5], 3000 nM | 5.89 | –
E57 [12], 4.1 nM | – | 0.14
E57 [12], 12.3 nM | – | 0.165
E57 [12], 37 nM | – | 0.148
E57 [12], 111.1 nM | – | 0.157
E57 [12], 333.3 nM | – | 0.144
E57 [12], 1000 nM | – | 0.136
E57 [12], 3000 nM | – | 0.13
FT3469 [7], 4.1 nM | 1.58 | –
FT3469 [7], 12.3 nM | 1.79 | –
FT3469 [7], 37 nM | 2.15 | –
FT3469 [7], 111.1 nM | 1.67 | –
FT3469 [7], 333.3 nM | 2.41 | –
FT3469 [7], 1000 nM | 3.08 | –
FT3469 [7], 3000 nM | 3.19 | –
FT3469 [14], 4.1 nM | – | 0.616
FT3469 [14], 12.3 nM | – | 0.73
FT3469 [14], 37 nM | – | 0.51
FT3469 [14], 111.1 nM | – | 0.563
FT3469 [14], 333.3 nM | – | 0.489
FT3469 [14], 1000 nM | – | 0.442
FT3469 [14], 3000 nM | – | 0.445
